# From PMC7002685, “Inhibition of vascular calcification by inositol phosphates derivatized with ethylene glycol oligomers” (Nature Communications, 2020)
# Where “and” joins values, the source holds several entries; their conditions need not be identical. Equal entries are not always repeated.
# What was measured:
# [1] = PK after sub-chronic s.c. treatment (7 days); assay type: in vivo, male Sprague-Dawley rats; conditions: for plasma concentration: unit not given
# Method: To study PK in healthy animals, male Sprague-Dawley rats (Harlan, Correzzana, Italy) were housed up to three per cage with free access to water and standard chow (pellets 12 mm, global diet 2018 certificate, Mucedola, Srl, Settimo Milanese, Italy), and submitted to a 12-h light/dark cycle. Animals were administered i.v. 10 mg/kg of (OEG2)2-IP4 in saline solution i.v. (30 s bolus, 5 mL/kg) and s.c. (5 mL/kg), respectively, in three animals per route and treatment. […] Plasma calcium concentration was determined in pre-dose samples and in t = 30 min samples of both acute and chronic treatments using the calcium colorimetric assay. Blood samples of 100 µL were drawn at several time points from the caudal vein, centrifuged at (3000 × g, 4 °C, 10 min) and stored at −80 °C until analysis by liquid chromatography–tandem mass spectrometry (LC-MS/MS).
# [2] = tested on: vascular calcification; assay: Adenine and high-phosphate-diet-induced rat model of VC; assay type: in vivo, male Wistar rats
# Method: Uremia increases the risk for developing VC. Therefore, the effect of (OEG2)2-IP4 on the development of VC was investigated in a previously established adenine and high-phosphate-diet-induced rat model of VC that results in uremia and chronic renal failure. […] (OEG2)2-IP4 was administered via a s.c.-implanted osmotic pump at doses of 5, 15, or 50 mg/kg/day for 4 weeks, and treatment was initiated 1 week after the start of adenine supplementation. […] Animals in this model developed severe CKD (Supplementary Fig. 20), which was accompanied by substantial weight loss (Supplementary Fig. 21). No significant difference in the level of renal failure and body weight loss was observed between the different treatment groups, with the exception of creatinine at week 3 and serum phosphate at sacrifice in the 15 mg/kg/day group (Supplementary Fig. 20).
# The inhibitory effect of (OEG2)2-IP4 on heart calcifications was significant starting at 15 mg/kg/day (Fig. 6b). The compound’s activity was also evident following von Kossa staining (Fig. 6c) on the thoracic part of the aorta, and quantification of the von Kossa-positive area (Fig. 6d). […] In the femoral artery, reduction in bulk calcium was insignificant for all tested groups, likely due to the low level of calcification detected in the vehicle control (Fig. 6f, Supplementary Table 9).
# Male Wistar rats (Charles River) were housed two per cage with free access to water and standard chow and submitted to a 12-h light/dark cycle. Compounds were administered and doses calculated using the salt form. Animals were randomly assigned to four groups of 12 animals each and given a high-phosphate (1.03%) diet for 2 weeks before starting a special diet to initiate uremia. Uremia/VC was induced in all animals by freely fed diet containing high-phosphate (0.92%), low-protein (2.5% instead of 19%), and adenine (0.75%) for 4 weeks. The diet was again switched to a high-phosphate (1.03%) diet for 1 week, after which rats were sacrificed.
# The first group was treated with vehicle (double distilled (d.d.) water), the second, third, and fourth groups were treated with daily doses equivalent of 5, 15, and 50 mg/kg of (OEG2)2-IP4, respectively, in 2 mL d.d. water starting 1 week after the administration of the adenine diet. Compounds were delivered continuously for 4 weeks via osmotic pumps (type 2ML4; Alzet, Cupertino, CA, USA) implanted subcutaneously under anesthesia 1 week after the start of the adenine diet. Blood sampling for serum and plasma at baseline, week 1, and week 3 was performed in restrained, conscious animals. […] Serum samples were analyzed for creatinine according to the Jaffe method, calcium (using flame atomic absorption spectrometry[74]), and phosphate (DiaSys Diagnostic Systems, Holzheim, Germany) concentrations. In serum samples taken at sacrifice, the CPP-associated calcium was quantified by calculating the difference between total serum calcium (measured in serum supernatants after centrifugation at 3000 × g, RT, 15 min) and serum calcium after removing CPPs by centrifugation (16,000 × g and 4 °C for 120 min)[26]. In addition, serum aliquots were centrifuged (10,000 × g, 4 °C, 30 min) and T50’s were determined as described above. CPP size was monitored by hourly DLS measurements at 37 °C, after spiking cleared serum samples with calcium (10 mM) and phosphate (6 mM), for a total of 8 h[29].
# At sacrifice, the heart, the abdominal aorta, left carotids, and femoral arteries were collected. The presence of calcification in each animal was evaluated on paraffin-embedded, von Kossa stained sections of the thoracic aorta (as described previously[74]), as well as by measurement of the total calcium content in the heart and vascular tissue samples by flame atomic absorption spectrometry.
# [3] = target: T1, Estrogen ERα (Homo sapiens, UniProt P03372); assay: Off-target 226010; assay type: binding
# T1 construct: purchased Eurofins Panlabs Discovery Services Taiwan, Ltd
# Method: The potential off-target activity of 10 µM (OEG2)2-IP4 was assessed against a panel of 87 enzymes, receptors, or ion channels that are used in standard safety pharmacology screens.
# 3.2. Off-target screening assay
# The experiments were conducted by a contract research organization (Eurofins Panlabs Discovery Services Taiwan, Ltd.) and details on the respective assays can be retrieved via the catalog number provided in Supplementary Table 11 from the company’s webpage
# (https://www.eurofinsdiscoveryservices.com/). […]
# At sacrifice the left tibia of animals of the rat model with dietary adenine/high-phosphate-induced uremia and VC was collected, fixed with 70% v/v EtOH and embedded in methyl methacrylate. The trabecular bone compartment is known to be the most metabolic active i.e. actively re-structured bone compartment in CKD. Therefore, histomorphometric and micro-computed tomography (µCT) analysis of bone was performed on the trabecular compartment. Tibial sections were Goldner-stained for histomorphometric analysis of the proximal metaphysis using the AxioVision Release 4.5 software, as […]
# described previously5. […]
# T1 sequence (P03372 whole entry): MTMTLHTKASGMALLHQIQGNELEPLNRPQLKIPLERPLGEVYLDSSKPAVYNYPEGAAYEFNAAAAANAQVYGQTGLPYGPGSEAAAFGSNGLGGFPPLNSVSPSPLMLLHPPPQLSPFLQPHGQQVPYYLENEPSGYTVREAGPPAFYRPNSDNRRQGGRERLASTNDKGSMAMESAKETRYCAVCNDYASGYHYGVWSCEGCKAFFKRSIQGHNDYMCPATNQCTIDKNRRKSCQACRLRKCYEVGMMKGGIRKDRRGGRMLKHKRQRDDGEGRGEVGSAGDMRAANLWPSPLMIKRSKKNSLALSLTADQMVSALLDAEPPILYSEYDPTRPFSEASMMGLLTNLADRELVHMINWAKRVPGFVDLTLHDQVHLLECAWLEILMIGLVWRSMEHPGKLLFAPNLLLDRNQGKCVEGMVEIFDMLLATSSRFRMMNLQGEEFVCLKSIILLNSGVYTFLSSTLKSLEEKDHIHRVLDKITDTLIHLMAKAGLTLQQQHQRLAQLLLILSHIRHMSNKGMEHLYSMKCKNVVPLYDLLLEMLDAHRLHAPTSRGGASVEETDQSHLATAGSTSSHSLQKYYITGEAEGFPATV
smiles,measurement,setting,value
"COCCOCCO[C@@H]1[C@@H](OP(=O)(O)O)[C@H](OCCOCCOC)[C@@H](OP(=O)(O)O)[C@@H](OP(=O)(O)O)[C@H]1OP(=O)(O)O [(OEG2)2-IP4, 4,6-Di-O-(methoxy-diethyleneglycol)-myo-inositol-1,2,3,5-tetrakis(phosphate)]",accumulation following repeated s.c. administration,[1]; 50 mg/kg for 7 days,No significant accumulation
same,plasma concentration,"[1]; 50 mg/kg/day s.c. sub-chronic (7 days), time 0",0.18 and 0.24 and 0.25 and 0.16
same,plasma concentration,"[1]; 50 mg/kg/day s.c. sub-chronic, time 0.5",82.39 and 90 and 95.45 and 69.57
same,plasma concentration,"[1]; 50 mg/kg/day s.c. sub-chronic, time 1",64.18 and 72.74 and 67.54 and 66.21
same,plasma concentration,"[1]; 50 mg/kg/day s.c. sub-chronic, time 2",31.83 and 38.97 and 22.86 and 35.06
same,plasma concentration,"[1]; 50 mg/kg/day s.c. sub-chronic, time 8",0.78 and 0.86 and 0.76 and 0.85
same,plasma concentration,"[1]; 50 mg/kg/day s.c. sub-chronic, time 24",0.07 and 0.13 and 0.08
same,"Calcium, A. abdominialis",[2]; 5 mg/kg/day,12.71 ± 11.66 mg/g tissue
same,"Calcium, A. carotis",[2]; 5 mg/kg/day,11.06 ± 9.10 mg/g tissue
same,"Calcium, A. femoralis",[2]; 5 mg/kg/day,4.47 ± 3.95 mg/g tissue
same,"Calcium, Heart",[2]; 5 mg/kg/day,0.05 ± 0.03 mg/g tissue
same,Von Kossa positive area in the aorta thoracalis,[2]; 5 mg/kg/day,17.86 ± 12.46%
same,Mortality (animals),"[2]; 5 mg/kg/day, s.c. osmotic pump, 4 weeks",0/12
same,"Calcium, A. abdominialis",[2]; 15 mg/kg/day,6.24 ± 3.70 mg/g tissue
same,"Calcium, A. carotis",[2]; 15 mg/kg/day,5.07 ± 6.23 mg/g tissue
same,"Calcium, A. femoralis",[2]; 15 mg/kg/day,4.14 ± 1.92 mg/g tissue
same,"Calcium, Heart",[2]; 15 mg/kg/day,0.04 ± 0.01 mg/g tissue
same,Mortality (animals),[2]; 15 mg/kg/day,1/12
same,Von Kossa positive area in the aorta thoracalis,[2]; 15 mg/kg/day,14.35 ± 11.49%
same,"Calcium, A. abdominialis",[2]; 50 mg/kg/day,1.69 ± 1.80 mg/g tissue
same,"Calcium, A. carotis",[2]; 50 mg/kg/day,0.84 ± 1.11 mg/g tissue
same,"Calcium, A. femoralis",[2]; 50 mg/kg/day,2.01 ± 1.41 mg/g tissue
same,"Calcium, Heart",[2]; 50 mg/kg/day,0.04 ± 0.02 mg/g tissue
same,Mortality (animals),[2]; 50 mg/kg/day,1/12
same,Von Kossa positive area in the aorta thoracalis,[2]; 50 mg/kg/day,2.72 ± 5.97%
same,calcification in the carotid artery compared to the 5 and 15 mg/kg/day groups,[2]; 50 mg/kg/day,prevented calcification in the carotid artery
same,calcemic status of the animals,[2]; 50 mg/kg/day for 4 weeks,not influenced
same,bulk calcium in the abdominal aorta compared to vehicle,"[2]; 5, 15, 50 mg/kg/day",trend in a dose-dependent reduction of bulk calcium
same,reduction in bulk calcium in the femoral artery,[2]; all tested groups,insignificant
same,dose from which inhibitory effect on heart calcifications was significant,"[2]; rat, in vivo",≥ 15 mg/kg/day
same,inhibition at 10 µM,[3],-1%
